The results in this text go back to patent US8969325B2, “TRPV1 antagonists” (AbbVie Inc., priority 2011, dated 2015).

The target in assay [1] is T1, human TRPV1 (Homo sapiens (Human), UniProt Q8NER1). As to the kind of experiment: Capsaicin Activation Assay (intracellular Ca2+, FLIPR). It counts as cell-based. The note with it: recombinant HEK293 cells expressing hTRPV1, 50 nM capsaicin. The method, boiled down:
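Stably transfected HEK293 cells expressing human TRPV1 cDNA, plated the day before in poly-D-lysine plates. Compounds serially diluted from 10 mM DMSO stocks; intracellular Ca2+ fluorescence read on FLIPR at 1 to 5 second intervals.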

For assay [2], the target named is T1, human TRPV1. Kind of assay: Acid Activation Assay (pH 5.0, intracellular Ca2+, FLIPR). Particulars: percentage of the maximal pH 5.0-induced response remaining; recombinant HEK293 hTRPV1 cells; maximum concentration tested 37.5 μM. The class given is cell-based. The method, boiled down: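 HEK293 cells stably expressing recombinant hTRPV1, loaded with Calcium-4 dye 90-120 min at 25° C. Compounds added over a 12-point half-log range (top 37.5 μM), then pH 5.0 DPBS/MES challenge after 3 min; FLIPR peak fluorescence over baseline given as % of maximal pH 5.0 response.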

Broadly, the pIC50 is the IC50 on a negative log10 scale, so that one unit is a factor of ten.

pIC50: −log10 of the molar value.

T1 sequence (Q8NER1 whole entry): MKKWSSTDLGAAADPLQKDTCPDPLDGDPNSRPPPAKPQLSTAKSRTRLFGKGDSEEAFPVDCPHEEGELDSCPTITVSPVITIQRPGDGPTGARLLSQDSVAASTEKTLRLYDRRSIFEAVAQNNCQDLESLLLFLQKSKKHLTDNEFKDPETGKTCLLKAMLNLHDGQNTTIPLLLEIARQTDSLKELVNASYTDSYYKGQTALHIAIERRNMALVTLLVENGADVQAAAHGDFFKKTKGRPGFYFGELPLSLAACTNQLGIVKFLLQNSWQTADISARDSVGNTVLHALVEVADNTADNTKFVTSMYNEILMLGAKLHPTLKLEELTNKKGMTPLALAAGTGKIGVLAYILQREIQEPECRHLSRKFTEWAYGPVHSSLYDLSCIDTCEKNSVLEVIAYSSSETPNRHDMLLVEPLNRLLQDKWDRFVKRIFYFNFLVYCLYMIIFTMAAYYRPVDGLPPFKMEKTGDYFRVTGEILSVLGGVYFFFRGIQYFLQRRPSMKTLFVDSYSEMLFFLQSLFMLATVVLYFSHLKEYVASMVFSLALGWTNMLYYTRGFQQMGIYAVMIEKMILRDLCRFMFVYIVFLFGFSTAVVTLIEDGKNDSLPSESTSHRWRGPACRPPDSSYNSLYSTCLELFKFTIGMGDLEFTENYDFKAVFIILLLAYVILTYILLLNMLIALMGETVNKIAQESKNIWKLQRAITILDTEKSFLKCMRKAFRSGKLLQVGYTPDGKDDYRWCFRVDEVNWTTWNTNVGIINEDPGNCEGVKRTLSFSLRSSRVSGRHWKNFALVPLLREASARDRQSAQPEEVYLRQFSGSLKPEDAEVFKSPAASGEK

Take `CN1Cc2ccc(NC(=O)N[C@@H]3CCOc4cc(C(F)(F)F)ccc43)cc2NC1=O` [Example 201, 1-(3-methyl-2-oxo-1,2,3,4-tetrahydroquinazolin-7-yl)-3-[(4R)-7-(trifluoromethyl)-3,4-dihydro-2H-chromen-4-yl]urea]: the negative-log IC50 (pIC50) in assay [1] was 6.89. For the same compound, the “human TRPV1 H^+ (max % remain)” value in assay [2] is 45%.
The corresponding values for `CN1Cc2ccc(NC(=O)N[C@@H]3CCc4cc(F)ccc43)cc2NC1=O` [Example 202, 1-[(1R)-5-fluoro-2,3-dihydro-1H-inden-1-yl]-3-(3-methyl-2-oxo-1,2,3,4-tetrahydroquinazolin-7-yl)urea] are 6.66 and 50%.
For `CN1Cc2ccc(NC(=O)N[C@H]3CC4(CCC4)Oc4ccc(F)cc43)cc2NC1=O` [Example 203, 1-[(4S)-6-fluoro-3,4-dihydrospiro[chromene-2,1′-cyclobutan]-4-yl]-3-(3-methyl-2-oxo-1,2,3,4-tetrahydroquinazolin-7-yl)urea] the same measures were 4.55 and 64%.
Consider `CN1Cc2ccc(NC(=O)N[C@H]3CC(C)(C)Oc4ccc(F)cc43)cc2NC1=O` [Example 204, 1-[(4S)-6-fluoro-2,2-dimethyl-3,4-dihydro-2H-chromen-4-yl]-3-(3-methyl-2-oxo-1,2,3,4-tetrahydroquinazolin-7-yl)urea], for which the pIC50 in assay [1] was 5.80. For the same compound, in assay [2], the “human TRPV1 H^+ (max % remain)” value came out at 55%.
With `CN1Cc2ccc(NC(=O)N[C@@H]3CC4(CCCC4)Oc4ccccc43)cc2NC1=O` [Example 205, 1-[(4R)-3,4-dihydrospiro[chromene-2,1′-cyclopentan]-4-yl]-3-(3-methyl-2-oxo-1,2,3,4-tetrahydroquinazolin-7-yl)urea], the pIC50 in assay [1] was 6.40. Also, in assay [2], the “human TRPV1 H^+ (max % remain)” value was determined as 56%.
Take `CN1Cc2ccc(NC(=O)N[C@@H]3C[C@](C)(CF)Oc4cc(C(F)(F)F)ccc43)cc2NC1=O` [Example 206, 1-[(2R,4R)-2-(fluoromethyl)-2-methyl-7-(trifluoromethyl)-3,4-dihydro-2H-chromen-4-yl]-3-(3-methyl-2-oxo-1,2,3,4-tetrahydroquinazolin-7-yl)urea]: the pIC50 in assay [1] is 6.62. Also, the “human TRPV1 H^+ (max % remain)” value in assay [2] is 43%.
As to `CN1Cc2ccc(NC(=O)N[C@@H]3C[C@](C)(C(F)F)Oc4ccccc43)cc2NC1=O` [Example 207, 1-[(2R,4R)-2-(difluoromethyl)-2-methyl-3,4-dihydro-2H-chromen-4-yl]-3-(3-methyl-2-oxo-1,2,3,4-tetrahydroquinazolin-7-yl)urea], in assay [1], the pIC50 was 6.48. The “human TRPV1 H^+ (max % remain)” value in assay [2] came out at 57%.
For `CN1Cc2ccc(NC(=O)N[C@@H]3CC(C)(C)Oc4nc(C(F)(F)F)ccc43)cc2NC1=O` [Example 208, 1-[(4R)-2,2-dimethyl-7-(trifluoromethyl)-3,4-dihydro-2H-pyrano[2,3-b]pyridin-4-yl]-3-(3-methyl-2-oxo-1,2,3,4-tetrahydroquinazolin-7-yl)urea] the same measures were 5.89 and 55%.
For `CN1Cc2ccc(NC(=O)N[C@@H]3CC(CF)(CF)Oc4cc(F)ccc43)cc2NC1=O` [Example 209, 1-[(4R)-7-fluoro-2,2-bis(fluoromethyl)-3,4-dihydro-2H-chromen-4-yl]-3-(3-methyl-2-oxo-1,2,3,4-tetrahydroquinazolin-7-yl)urea] the same measures were 6.54 and 57%.
With `O=C1CCc2ccc(NC(=O)N[C@@H]3CC(CF)(CF)Oc4cc(OC(F)(F)F)ccc43)cc2N1` [Example 211, 1-[(4R)-2,2-bis(fluoromethyl)-7-(trifluoromethoxy)-3,4-dihydro-2H-chromen-4-yl]-3-(2-oxo-1,2,3,4-tetrahydroquinolin-7-yl)urea], the negative logarithm of the IC50 (pIC50) in assay [1] was 7.70. For the same compound, the “human TRPV1 H^+ (max % remain)” value in assay [2] was 55%.
As for `C[C@@]1(C(F)F)C[C@@H](NC(=O)Nc2ccc3c(c2)NC(=O)CC3)c2ccc(Cl)cc2O1` [Example 212, 1-[(2S,4R)-7-chloro-2-(difluoromethyl)-2-methyl-3,4-dihydro-2H-chromen-4-yl]-3-(2-oxo-1,2,3,4-tetrahydroquinolin-7-yl)urea], the pIC50 in assay [1] is 7.21. Also, the “human TRPV1 H^+ (max % remain)” value in assay [2] was 34%.
`O=C1CCc2ccc(NC(=O)N[C@@H]3CC(CF)(CF)Oc4ccc(F)cc43)cc2N1` [Example 213, 1-[(4R)-6-fluoro-2,2-bis(fluoromethyl)-3,4-dihydro-2H-chromen-4-yl]-3-(2-oxo-1,2,3,4-tetrahydroquinolin-7-yl)urea]: the pIC50 in assay [1] was 6.77. The “human TRPV1 H^+ (max % remain)” value in assay [2] is on record as 42%.
The corresponding values for `O=C1CCc2ccc(NC(=O)N[C@@H]3CC(CF)(CF)Oc4c(F)cc(F)cc43)cc2N1` [Example 214, 1-[(4R)-6,8-difluoro-2,2-bis(fluoromethyl)-3,4-dihydro-2H-chromen-4-yl]-3-(2-oxo-1,2,3,4-tetrahydroquinolin-7-yl)urea] are 6.74 and 40%.
The corresponding values for `O=C1CCc2ccc(NC(=O)N[C@@H]3CC(CF)(CF)Oc4ccccc43)cc2N1` [Example 215, 1-[(4R)-2,2-bis(fluoromethyl)-3,4-dihydro-2H-chromen-4-yl]-3-(2-oxo-1,2,3,4-tetrahydroquinolin-7-yl)urea] are 7.22 and 49%.
For `O=C1CCc2ccc(NC(=O)N[C@@H]3CC(CF)(CF)Oc4c(F)cccc43)cc2N1` [Example 216, 1-[(4R)-8-fluoro-2,2-bis(fluoromethyl)-3,4-dihydro-2H-chromen-4-yl]-3-(2-oxo-1,2,3,4-tetrahydroquinolin-7-yl)urea] the same measures were 6.66 and 50%.
With `O=C1CCc2ccc(NC(=O)N[C@H]3CC(CF)(CF)Oc4cc(Cl)ccc43)cc2N1` [Example 217, 1-[(4S)-7-chloro-2,2-bis(fluoromethyl)-3,4-dihydro-2H-chromen-4-yl]-3-(2-oxo-1,2,3,4-tetrahydroquinolin-7-yl)urea], in assay [1], the negative logarithm of the IC50 (pIC50) is 6.37. Besides, the “human TRPV1 H^+ (max % remain)” value in assay [2] stood at 50%.
For `CC1(C)C[C@@H](NC(=O)Nc2ccc3c(c2)NC(=O)CC3)c2cccc(C(F)(F)F)c2O1` [Example 218, 1-[(4R)-2,2-dimethyl-8-(trifluoromethyl)-3,4-dihydro-2H-chromen-4-yl]-3-(2-oxo-1,2,3,4-tetrahydroquinolin-7-yl)urea] the same measures were 5.44 and 101%.
For `CC1(C)C[C@@H](NC(=O)Nc2ccc3c(c2)NC(=O)CC3)c2cccc(F)c2O1` [Example 219, 1-[(4R)-8-fluoro-2,2-dimethyl-3,4-dihydro-2H-chromen-4-yl]-3-(2-oxo-1,2,3,4-tetrahydroquinolin-7-yl)urea] the same measures were 7.25 and 29%.
For `O=C1CCc2ccc(NC(=O)N[C@@H]3CCOc4ccccc43)cc2N1` [Example 220, 1-[(4R)-3,4-dihydro-2H-chromen-4-yl]-3-(2-oxo-1,2,3,4-tetrahydroquinolin-7-yl)urea] the same measures were 6.72 and 41%.
Regarding `CCC1(CC)C[C@@H](NC(=O)Nc2ccc3c(c2)NC(=O)CC3)c2ccccc2O1` [Example 223, 1-[(4R)-2,2-diethyl-3,4-dihydro-2H-chromen-4-yl]-3-(2-oxo-1,2,3,4-tetrahydroquinolin-7-yl)urea], the negative logarithm of the IC50 (pIC50) in assay [1] was 7.43. Further, the “human TRPV1 H^+ (max % remain)” value in assay [2] stood at 44%.
